“Also recorded” adds a separate entry of the source.
Key:
[1] = system: Zebrafish myogenic progenitor cells (ZeMPCs); test: Limiting dilution engraftment assay (ELDA): cells treated ex vivo, transplanted into adult zebrafish, imaged at 7 dpt; type: in vivo; conditions: for engraftment efficiency compared with DMSO/vehicle-treated cells: 0.1 μM LPA or 0.3 μM NFA; for engraftment efficiency relative to vehicle-treated controls: 5 μM LPA or 10 μM NFA; for engraftment capacity of transplanted myogenic progenitors in recipient adult zebrafish: 4 hour ex vivo chemical exposure, replicate transplantation
Protocol: Donor cells were derived from embryos that contained a GFP cassette driven by the promoter for mylz2, a muscle-specific structural protein. Recipients were optically clear, immunocompromised adult prkdc−/− zebrafish. To perform a limiting dilution assay, three doses (n=100, 200, and 400 cells) were administered per treatment (n=10 engraftment events per treatment-dose combination). The estimated engrafting cell frequency was calculated using the Extreme Limiting Dilution Analysis (ELDA, Hu et. al. 2009), which provides the most likely estimate (MLE) of engrafting cell frequency.
Given that this group of 230 lipids is too many to be examined in mice, transplantation efficiency was instead examined via limit-dilution assays in 15 recipient zebrafish per compound after a brief (4 hour) ex vivo chemical exposure. Positive hits from this primary screening were rescreened in replicate transplantation experiments incorporating dose response testing.
Lipids are frequently found to enhance cell migration and homeostasis in blood and muscle tissue (Cencetti et al., 2014; Lahvic et al., 2018; Li et al., 2015; Oh et al., 2016), and so it was elected to screen mainly bioactive lipids in efforts to identify compounds that enhance ZeMPCs engraftment efficiency in vivo. Myogenic progenitor cells were treated for 4 hours with one of the 188 unique lipid compounds contained in the ICCB Known Bioactives Library. Compound-treated cells were then harvested and transplanted intramuscularly into both flanks of 5 different casper recipient fish, with transplants performed at each of 3 transplanted cell doses (25, 75 or 150 cells). In these studies, recipient fish received split-dose irradiation of 15 Gy at 2 days and 1 day prior to transplantation to suppress any immune responses to the transplanted cells. Engraftment efficiency was measured by imaging casper recipients at 7 dpt (FIG. 18A). […] For this secondary screening approach, cells were transplanted into prkdc^D3612ls casper fish, which are deficient in mature T and B cells, and assayed engraftment efficiency in the recipient fish 7 days post-transplantation. Two compounds were identified, lysophosphatidic acid (LPA) and niflumic acid (NFA), which increased ZeMPC engraftment efficiency in both of these assay systems (FIG. 12B).
Lipids from the ICCB Known Bioactives Library (enzolifesciences.com/BML-2840/iccb-known-bioactives-library) were diluted at a 1:100 ratio in transplantation media (zESC medium without bFGF and FBS) and added to prewashed in vitro expanded muscle cells. NFA (Cayman and Santa Cruz Biotechnology) and LPA (Cayman and Santa Cruz Biotechnology) were used for the secondary confirmation screening experiments. […] 4- to 8-month-old casper recipients received split-dose irradiation of 15 Gy each, either 2 days or 1 day before transplantation. For LDA screening, cells were transplanted into each side of 5 pre-irradiated casper recipient fish or 5 non-irradiated prkdc-mutant recipient zebrafish. At 7 dpt, the recipients were anaesthetized using a previously described method (Dang et al., 2016) and imaged using a fluorescent stereo microscope (Leica M165 FC). Successful engraftment was defined as the presence of GFP+ fibers. Variation in different experiments is caused by inherent variability in the in vitro ZeMPC derivation procedure, which results in differences in engrafting cell frequency across different derivation attempts. To mitigate the impact of such experimental variation on screening results, only LDA results for cells derived from the same cultures were compared. Comparison to a vehicle-treated experimental control was included in every transplantation experiment. Next, the chemical treated cell potency and vehicle-treated cell potency was measured using the Extreme Limiting Dilution Analysis (ELDA) software (Hu and Smyth, 2009). The ratio of the treated cell potency and vehicle-treated cell potency determine the engraftment efficiency fold increase value.

mouse satellite cells = test: Calcium imaging in Fluo-4 AM-loaded mouse satellite cells (AUC of signal intensity); type: cell-based; conditions: 1-5 μM of LPA, 2.5-10 μM of NFA; 1,500 cells/well
Protocol: First, to establish optimal conditions, cells were sorted by FACS into 384 well plates at 10,000, 5,000, 1,500, or 500 cells per well, with 8 replicates for each cell density. […] Cells were again incubated with Fluo4 AM for 45 minutes at 37° C. followed by imaging. Different concentrations of LPA, NFA, or both compounds combined, along with DMSO (vehicle control) and ionomycin (direct calcium ionophore), were added 60 seconds after the beginning of imaging to quantify both baseline calcium ion concentrations and calcium flux in response to the different treatment conditions. Calcium concentrations were calculated as area under the curve (AUC) of signal intensity and compared these values across different concentrations of each compound (FIG. 25A).
Satellite cells were isolated from wild-type mice (FVB/NJ) and sorted into 384 well plates in culture media. The cells were incubated overnight at 37° C. The next day, the cells were incubated with Fluo-4 AM (Thermo Fisher Sci F14201), a fluorescent calcium ion indicator, for 45 minutes at 37° C., followed by imaging of the entire plate with the FDSS 7000 ex functional drug screening system (Hamamatsu) in the BCH assay development and screening facility.

ZeMPCs = test: RNA sequencing of treated ZeMPCs; type: cell-based, zebrafish
Excerpt: To gain insight into the mechanisms through which LPA and NFA treatment might enhance donor cell engraftment in vertebrate muscle, RNA sequencing analysis were next performed in treated ZeMPCs and in mouse satellite cells. Comparison of differential gene expression in NFA-treated or LPA-treated cells to vehicle-treated cells indicated upregulation of calcium-dependent genes in response to these compounds in both ZeMPCs (FIG. 21) and mouse satellite cells (FIGS. 15A and 15B).
Isolated mouse muscle satellite cells and ZeMPCs were used to prepare RNA after in vitro chemical treatment. Total RNA was isolated by the micro RNeasy kit (QIAGEN). cDNA was prepared using SMART Seq v4 Ultra Low RNA-Seq kit for 48 reactions (Takara) and a Nextera kit was used for library construction. Sequencing data FASTQ files for samples were processed in tophat-cufflinks workflow in a Linux server operating system to output gene-level abundance estimates and statistical inference as gene-level raw counts. Those raw counts for samples were input into the cuffdiff for differential gene expression analysis. The assigned GEO accession number for the RNA sequencing data is GSE143801.

muscle progenitor cells = test: Measurement of Ca2+ transients in fura-2 AM-loaded muscle progenitor cells; type: cell-based
Protocol: Measurement of Ca2+ transients was performed in fura-2 AM-loaded cells.
Thus, it is possible that the enhanced engraftment capacity of muscle progenitor cells exposed to these compounds involves a common Ca^2+-dependent signaling events (FIG. 9).

| Compound | engraftment efficiency compared with DMSO/vehicle-treated cells [1] | engraftment efficiency relative to vehicle-treated controls [1] [times] | engraftment efficiency compared with DMSO treated cells ([1]; 15 uM NFA or 4 uM LPA) | engraftment capacity of transplanted myogenic progenitors in recipient adult zebrafish [1] | engraftment efficiency relative to DMSO-treated cells ([1]; ZeMPCs treated for 1 hour) | engraftment efficiency relative to DMSO-treated cells ([1]; ZeMPCs treated for 2 hours) [times] | engraftment efficiency relative to DMSO-treated cells ([1]; ZeMPCs treated for 4 hours) [times] | calcium ion concentrations (AUC of signal intensity) relative to vehicle-treated controls (mouse satellite cells) | expression of calcium-dependent genes vs vehicle-treated cells (ZeMPCs) | cytoplasmic Ca2+ concentration (muscle progenitor cells) | engraftment efficiency compared with DMSO treated cells ([1]; 0.3 uM LPA) |
| --- | --- | --- | --- | --- | --- | --- | --- | --- | --- | --- | --- |
| O=C(O)c1cccnc1Nc1cccc(C(F)(F)F)c1 [NFA, niflumic acid] | did not change the engraftment efficiency; also recorded: did not alter the engraftment efficiency; also recorded: no difference | 2.37 | increased engraftment efficiency | increasing the engraftment capacity | did not alter | 2.85 | 2.64 | increased significantly | upregulation | stimulate increases |  |
| lysophosphatidic acid [LPA] | did not change the engraftment efficiency; also recorded: did not alter the engraftment efficiency; also recorded: did not result in any change | 2.34 | increased engraftment efficiency | increasing the engraftment capacity | 1.11 times | 1.72 | 2.3 | increased significantly | upregulation | stimulate increases | did not change the engraftment efficiency |

From US12097174B2, “Methods and agents that enhance myogenic progenitor cell engraftment” (President and Fellows of Harvard College, priority 2018, dated 2024)
